In paper PMC11491487 (Nature Communications, 2024):
Values joined by “and” are separate entries in the source; they are usually repeats but may differ in a detail not shown here. Equal values may be shown once.

How the values were obtained:
[1] = molecular target: T1, chiRyR-I4657M/G4819E (Oryctolagus cuniculus, UniProt P11716, C4657M/F4564Y/G4819E/L4792S/R4563K); assay: biochemical; format: biochemical, rabbit
[2] = test system: Drosophila melanogaster RyR G4915E; assay: Bioassay of gene-edited Drosophila melanogaster (feeding, mortality after 24 h); format: in vivo; conditions: for death rate: 24 h
[3] = molecular target: T2, rRyR1 C4657I (Oryctolagus cuniculus, UniProt P11716, C4657I); assay: time-lapse [Ca2+]ER fluorescence assay, HEK293 cells; format: cell-based, rabbit; conditions: n = 3
T2 construct: expressed in transfected cells

[4] = molecular target: T3, chiRyR (Oryctolagus cuniculus, UniProt P11716, C4657I/F4564Y/L4792S/R4563K); assay: cell-based; parameters: species or system rabbit
[5] = test system: Spodoptera frugiperda; parameters: method as in PMID 31157506; conditions: in vivo; cited from earlier work
[6] = molecular target: Sf RyR (Spodoptera frugiperda, UniProt A0A4P8L6R5); assay: time-lapse [Ca2+]ER fluorescence assay, HEK293 cells; format: cell-based
[7] = molecular target: T4, rRyR1 L4792S (Oryctolagus cuniculus, UniProt P11716, L4792S); assay: as above; format: cell-based, rabbit; conditions: n = 3
T4 construct: expressed in transfected cells

[8] = molecular target: T5, rRyR1 F4564Y (Oryctolagus cuniculus, UniProt P11716, F4564Y); assay: as above; format: cell-based, rabbit; conditions: n = 3
T5 construct: expressed in transfected cells

[9] = molecular target: Sf RyR_I4734M/G4891E (Spodoptera frugiperda, UniProt A0A4P8L6R5, G4891E/I4734M); assay: cell-based
[10] = molecular target: rRyR1 (Oryctolagus cuniculus, UniProt P11716); assay: time-lapse [Ca2+]ER fluorescence assay, HEK293 cells; format: cell-based, rabbit
[11] = solubility comparison; format: physicochemical
[12] = test system: Drosophila melanogaster RyR M4758I; assay: Bioassay of gene-edited Drosophila melanogaster (feeding, mortality after 24 h); format: in vivo; conditions: for death rate: 24 h
[13] = molecular target: T1, chiRyR-I4657M/G4819E; assay: cell-based; parameters: species or system rabbit
[14] = molecular target: T6, rRyR1 R4563K (Oryctolagus cuniculus, UniProt P11716, R4563K); assay: time-lapse [Ca2+]ER fluorescence assay, HEK293 cells; format: cell-based, rabbit; conditions: n = 3
T6 construct: expressed in transfected cells

[15] = molecular target: T3, chiRyR; assay: biochemical; format: biochemical, rabbit

Compound: CNC(=O)c1cc(Cl)cc(C)c1NC(=O)c1cc(Br)nn1-c1ncccc1Cl [CHL, chlorantraniliprole]
- EC50 [1]: 14700 ± 1600 nM
- [3H]ryanodine binding (B/Bmax) ([1]; CHL 10.000 uM): 0.114 and 0.077 and 0.068 and 0.062
- [3H]ryanodine binding (B/Bmax) ([1]; CHL 100.000 uM): 0.193 and 0.240 and 0.178 and 0.209
- LD50 ([2]; 24 h feeding, n = 30, heterozygous G4915E/G): 1.6 mM
- death rate ([2]; CHL 1.000 uM): 0%
- death rate ([2]; CHL 3.333 uM): 0%
- death rate ([2]; CHL 10.000 uM): 0% and 10%
- death rate ([2]; CHL 33.333 uM): 10%
- death rate ([2]; CHL 100.000 uM): 10% and 20%
- EC50 [3]: 167 nM
- EC50 [4]: 1.6 nM
- F/F0 ([4]; CHL 1e-5 uM): 0.9477 and 0.9176 and 0.9126
- F/F0 ([4]; CHL 2.5e-5 uM): 0.9199 and 0.9229 and 0.931
- F/F0 ([4]; CHL 5e-5 uM): 0.8883 and 0.929 and 0.9092
- F/F0 ([4]; CHL 0.0001 uM): 0.9049 and 0.9411 and 0.8175
- F/F0 ([4]; CHL 0.00025 uM): 0.8945 and 0.8973 and 0.8398
- F/F0 ([4]; CHL 0.0005 uM): 0.6917 and 0.6365 and 0.6304
- F/F0 ([4]; CHL 0.0025 uM): 0.5122 and 0.4849 and 0.4622
- F/F0 ([4]; CHL 0.005 uM): 0.6454 and 0.5393 and 0.4867
- F/F0 ([4]; CHL 0.01 uM): 0.4912 and 0.5046 and 0.4772
- F/F0 ([4]; CHL 0.025 uM): 0.5158 and 0.4751 and 0.4992
- F/F0 ([4]; CHL 0.05 uM): 0.5374 and 0.5173 and 0.549
- F/F0 ([4]; CHL 0.1 uM): 0.4915 and 0.5257 and 0.4507
- F/F0 ([4]; CHL 1 uM): 0.5356 and 0.5199 and 0.5646
- F/F0 ([4]; CHL 3 uM): 0.5195 and 0.4435 and 0.4631
- F/F0 ([4]; CHL 10 uM): 0.5287 and 0.4905 and 0.48
- F/F0 ([4]; CHL 30 uM): 0.5354 and 0.4682 and 0.4761
- F/F0 ([4]; CHL 50 uM): 0.5799 and 0.4954 and 0.5274
- fold decreased sensitivity [5]: 225 fold
- F/F0 ([6]; CHL 1e-5 uM): 0.9606 and 0.9752 and 0.9813
- F/F0 ([6]; CHL 0.001 uM): 1.004 and 1.002 and 1.001
- F/F0 ([6]; CHL 0.005 uM): 0.7229 and 0.7431 and 0.7294
- F/F0 ([6]; CHL 0.01 uM): 0.3097 and 0.3094 and 0.2868
- F/F0 ([6]; CHL 0.1 uM): 0.2582 and 0.2663 and 0.2776
- F/F0 ([6]; CHL 0.5 uM): 0.268 and 0.2944 and 0.2596
- F/F0 ([6]; CHL 1 uM): 0.2734 and 0.2934 and 0.2867
- F/F0 ([6]; CHL 10 uM): 0.2774 and 0.2809 and 0.2932
- F/F0 ([6]; CHL 50 uM): 0.2939 and 0.2698 and 0.3129
- EC50 ([6]; n = 3, read-out: EC50): 5.5 nM
- EC50 [7]: 44.8 nM
- EC50 [8]: 556 nM
- EC50 [9]: 9100 nM
- F/F0 ([9]; CHL 0.1 uM): 0.9609 and 0.9591 and 1.0034
- F/F0 ([9]; CHL 1 uM): 0.987 and 0.977 and 0.9858
- F/F0 ([9]; CHL 10 uM): 0.5363 and 0.6213 and 0.7359
- F/F0 ([9]; CHL 50 uM): 0.3469 and 0.3845 and 0.4143
- F/F0 ([9]; CHL 100 uM): 0.3178 and 0.3119 and 0.3455
- F/F0 ([9]; CHL 150 uM): 0.3313 and 0.3179 and 0.3624
- F/F0 ([9]; CHL 200 uM): 0.3347 and 0.3244 and 0.3692
- EC50 [10]: 4900 nM
- relative solubility [11]: more soluble than TET
- LD50 ([12]; 24 h feeding, n = 30): 127.9 nM
- death rate ([12]; CHL 0.010 uM): 0%
- death rate ([12]; CHL 0.033 uM): 0% and 10%
- death rate ([12]; CHL 0.100 uM): 60% and 40%
- death rate ([12]; CHL 0.333 uM): 80% and 70%
- death rate ([12]; CHL 1.000 uM): 100% and 90%
- death rate ([12]; CHL 3.333 uM): 100%
- death rate ([12]; CHL 10.000 uM): 100%
- F/F0 ([13]; CHL 1e-5 uM): 0.8891 and 0.8803 and 0.8832
- F/F0 ([13]; CHL 0.0001 uM): 0.8817 and 0.9289 and 0.9243
- F/F0 ([13]; CHL 0.001 uM): 0.9674 and 0.9402 and 0.9553
- F/F0 ([13]; CHL 0.005 uM): 0.9942 and 0.938 and 0.9411
- F/F0 ([13]; CHL 0.01 uM): 0.9479 and 0.955 and 0.9174
- F/F0 ([13]; CHL 0.1 uM): 0.9465 and 0.9355 and 0.9097
- F/F0 ([13]; CHL 0.3 uM): 0.9306 and 0.9655 and 0.9439
- F/F0 ([13]; CHL 0.5 uM): 0.9145 and 0.8971 and 0.9399
- F/F0 ([13]; CHL 1 uM): 0.9091 and 0.8544 and 0.9005
- F/F0 ([13]; CHL 3 uM): 0.8328 and 0.8713 and 0.8682
- F/F0 ([13]; CHL 10 uM): 0.808 and 0.819 and 0.7565
- F/F0 ([13]; CHL 30 uM): 0.7257 and 0.6335 and 0.5826
- F/F0 ([13]; CHL 50 uM): 0.6512 and 0.5528 and 0.5088
- F/F0 ([13]; CHL 100 uM): 0.5781 and 0.4912
- F/F0 ([13]; CHL 200 uM): 0.6274 and 0.5179
- F/F0 ([13]; CHL 500 uM): 0.5379 and 0.5182
- EC50 ([13]; EC50, diamide insecticides, n = 3): 10300 nM and 14600 nM
- EC50 [14]: 62.6 nM
- EC50 [15]: 1.7 ± 0.3 nM
- [3H]ryanodine binding (B/Bmax) ([15]; CHL 0.010 uM): 0.191 and 0.230 and 0.144 and 0.262
- [3H]ryanodine binding (B/Bmax) ([15]; CHL 0.100 uM): 0.168 and 0.180 and 0.215
- [3H]ryanodine binding (B/Bmax) ([15]; CHL 1.000 uM): 0.199 and 0.219 and 0.215 and 0.312
- [3H]ryanodine binding (B/Bmax) ([15]; CHL 10.000 uM): 0.246 and 0.234 and 0.250 and 0.215
- [3H]ryanodine binding (B/Bmax) ([15]; CHL 100.000 uM): 0.207 and 0.242 and 0.223 and 0.191
